These results are taken from a melting point compilation (Tetko et al.; mined from patent text by program, amines drawn as free bases though some values may be those of a salt).

With `O=C(O)c1ccccc1SCc1nccc2ccccc12`, the melting point (commonly the temperature, or range, at which the solid turns liquid) is 170 to 172 °C.
To `CCN(c1ccc(C)cc1)c1nc(=O)c2cccnc2s1` belongs 158 °C; to `CCn1cc(C(=O)O)c(=O)c2c1SC(=NO)C2`, 332 to 334 °C; to `C1c2c(-c3nn[nH]n3)n[nH]c2[C@@H]2C[C@H]12`, 231 °C.
For `C=CCN1CCc2c(sc(N)c2C(=O)c2ccc(Br)cc2)C1` the value was 116 to 118 °C.
To `O=[N+]([O-])c1ccc(NCCc2ccccc2)cc1` belongs 57 to 59 °C; to `Nc1nc(=O)n(C2CC(O)C(CO)O2)cc1F` (stereo not given), 199 to 201 °C.
Consider `O=C(O)CCCCCCCc1nc(-c2ccccc2)c(-c2ccccc2)o1`, for which the melting point lay within 82 to 83 °C.
To `COC(=O)c1ccc2c(C(=O)c3ccccc3)c(C(=O)OC)ccc2c1` belongs 84 °C.
With `COc1cccc(CNC(=O)c2nc3cccc(OCCc4ccc(C(=O)O)cc4)c3c(=O)[nH]2)c1`, the melting point is 228 to 230 °C.
On to `CCOC(=O)c1c(C)n(-c2ccc(N(CC)CC)cc2)c(C)c(C(=O)OCC)c1=O`, for which the melting point was determined as 138 °C.
On to `COc1cc2c(cc1-c1cccnc1)-c1c(-c3cccnc3)c3c(n1CC2)C(=O)N(C(C)(C)C)CCC3`, for which the melting point lay within 310 to 312 °C.
`c1ccc2c(NC3CCCCC3)nnc(Cc3ccncc3)c2c1` came in with a melting point of 137 to 139 °C.
For `Cc1cccc(S(=O)(=O)n2c(CCCC(=O)O)cc3nc(Cl)ccc32)c1`, the melting point was found to be 165 °C.
`CCOC(=O)c1cccc(OCCCC2CCN(c3ccc(Cl)nn3)CC2)c1` came in with a melting point of 105 °C.
To `CCOC(=O)c1ccc2cc(-c3ccc(OC)cc3)ccn2c1=O` belongs 205 to 209 °C.
To `C=CCN(CC=C)Cc1nc(-c2ncn3c2[C@@H]2CCN2C(=O)c2c(Cl)cccc2-3)no1` belongs 165 to 170 °C; to `CSC1C(=O)Nc2ccc(Oc3ccccc3Cl)cc21` (stereo not given), 120 to 123 °C; to `N#Cc1ccc(-c2ccc(-c3nc4cc(C#N)ccc4[nH]3)cc2)nc1`, 346 to 347 °C.
For `COc1cc([N+](=O)[O-])c2nccc(C)c2c1Oc1ccc(F)cc1`, the melting point was 184 to 186 °C.
Take `O=C(O)C1=Cc2ccc(C(F)(F)F)cc2Oc2ccccc21`: the melting point is 180 °C.
To `CN(C(=O)c1ccc(-n2cccn2)cc1)C1CCN(C(=O)OC(C)(C)C)CC1` belongs 164 to 166 °C.
`Nc1cc(Br)c(Br)cc1[N+](=O)[O-]` had a melting point of 198 to 199 °C.
`CCCCCCCCCCCCCCNC(=O)Nc1sc(C(=O)O)c(C)c1C(=O)OC(C)(C)C` displayed a melting point of 176 to 178 °C.
For `CC(=O)N1CCNC(=O)C1c1ccc(F)cc1` (stereo not given) the value was 139 to 140 °C.
To `COc1cc(Nc2nccc(-c3sc(N4C=CC=NC4)nc3C)n2)ccc1N1CCOCC1` belongs 212 to 214 °C; to `CNC(=O)N1N=C(c2ccc(NC(C)=O)cc2)c2cc3c(cc2CC1C)OCO3` (stereo not given), 150 to 152 °C; to `CN1C(=O)C(c2ccc(OC(F)F)cc2)(c2ccc(F)c(OCCC=C(F)F)c2)N=C1N` (stereo not given), 139 to 140 °C.
To `O=C(O)Cc1ccc(Sc2ccc(Cl)cc2)cc1` belongs 135 to 140 °C; to `Cn1cc([N+](=O)[O-])nc1CBr`, 130 to 132 °C.
`CCOc1nn(Cc2ccc(Cl)cc2Cl)cc1CCCOc1nn(-c2ccccc2)cc1CCC(=O)O` came in with a melting point of 114 to 118 °C.
To `C=CCc1c(C)nc2c(OCc3ccccc3)cccn12` belongs 90.5 to 91.5 °C.
The compound `O=C(CCCOc1ccc2nc3[nH]c(=O)[nH]c3cc2c1)NC1CCCCCC1` displayed a melting point of 314 to 316 °C.
For `CC(CS(=O)(=O)c1ccc(-c2ccc3c(c2)OCO3)cc1)N(O)C=O` (stereo not given) the value was 200 to 201 °C; for `CC(=O)c1ccc(S(N)(=O)=O)c(Cl)c1`, 146 to 148 °C.
As to `COc1c(N2CCC(N)C(C)(C)C2)c(F)cc2c(=O)c(C(=O)O)cn(C3CC3)c12` (stereo not given), the melting point lay in the range of 222 to 224 °C.
For `CC(C)Cn1c(=O)n(C)c(=O)c2cc(Cc3cccc(F)c3)sc21` the value was 76 to 78 °C; for `CCCOc1ccccc1-c1cc(C)c(C(N)=O)c(=O)[nH]1`, 239 to 242 °C.
Regarding `Cc1cc(C)nc(N(C(=O)NS(C)(=O)=O)c2ccccc2)n1`, the melting point was 186 to 192 °C.
Compound `CC(C)(C)c1cccc(S(=O)(=O)Nc2ncc(C(F)(F)F)cc2I)c1` registered a melting point of 135 °C.
With `CN1CCN(CC(=O)NC2(c3ccc(Cl)cc3)C(=O)Nc3cc(Cl)cc(Cl)c32)CC1` (stereo not given), the melting point is 248 to 251 °C.
Turning to `CNS(=O)(=O)c1ccc(NN=C2C(=O)Nc3ccc(C(N)=O)cc32)cc1`, the melting point was over 250 °C.
To `CCCc1nc2ccccc2[nH]1` belongs 160 to 162 °C; to `COC(=O)[C@H](Cc1ccc([N+](=O)[O-])cc1)NC(=S)C1(CCCCS(C)(=O)=O)CCC1`, 150 to 152 °C.
Turning to `COCOc1ccc2cc(C3CCN(C)CC3)[nH]c(=O)c2c1`, the melting point is 200 to 202 °C.
Compound `COc1ccc([N+](=O)[O-])c2[nH]ccc(=O)c12` yielded a melting point of 195 to 200 °C.
To `Fc1ccc(-c2c[nH]c([C@@H](NC3CCC3)C3CCCCC3)n2)cc1` belongs 170 to 172 °C; to `CC(c1ccc(CCn2c(=O)[nH]c3cc(-c4ccc(F)cc4)sc3c2=O)cc1)N1CCCC1` (stereo not given), 260 to 264 °C.
Take `CN(O)C(=O)C(C)(C)Cc1ccc2c(c1)C(=O)c1ccccc1CO2`: the melting point was in the range of 192 to 194 °C.
To `N#Cc1ccc(-c2ccc(Br)o2)nc1` belongs 196 °C; to `CCOc1ccc(-c2csc(-c3cccc(C(=O)OC)c3)n2)cc1`, 192 to 193 °C.
For `COc1cc(C(=O)Nc2nc(C)c(C(=O)NCc3ccccc3)s2)ccn1` the value was 188 to 190 °C; for `N#CC1(c2ccccc2)C2CC3CC(C2)CC1C3` (stereo not given), 120 to 122 °C; for `Cc1cc([N+](=O)[O-])c(NC(C)C)c([N+](=O)[O-])c1C(C)C`, 54 to 55 °C.
For `COC(=O)CC(N)c1cc2ccccc2nc1Cl` (stereo not given) the value was 103 to 106 °C.
In the case of `CNC(=O)C1CC(=O)N(Cc2ccccc2)C1` (stereo not given), the melting point lay in the range of 82.5 to 83 °C.
To `OCc1cccc2cc3ccccc3cc12` belongs 124 to 125 °C.
To `S=c1[nH]ccn1C1CCCc2ccccc21` (stereo not given) belongs 188 to 189 °C.
For `COC(=O)c1cc(-c2ccc(F)cc2)oc1C` the value was 96 to 97 °C; for `O=C(O)C1CSC(c2ccccc2O)N1` (stereo not given), 169 °C; for `O=C(Nc1ccc(N2CCNCC2)c(C(F)(F)F)c1)c1ccc(F)c(OCc2cccnc2)c1`, 61 to 66 °C.
`CCc1cc([N+](=O)[O-])c(NC(CC)CC)c([N+](=O)[O-])c1C` displayed a melting point of 51 to 53 °C.
For `OCC1OC(c2c(Cl)c(Cl)cc3nc(Cl)cn23)C(O)C1O` (stereo not given) the value was 267 to 268 °C; for `COc1ccc(C(=O)n2c(Br)c(Br)c(C#N)c2Br)cc1`, 86 to 89 °C; for `CN1CCC(Oc2ccccc2)(c2ccccc2)CC1`, 99 to 101 °C.
